Read-outs that look alike come from different tables or passages of the source.
Tests used:
liver COMT = target: T1, liver COMT (Rattus norvegicus, UniProt P22734); assay: inhibition of liver COMT post oral administration to rats; assay type: in vivo; conditions: for ED50: rat, po
T1 construct: from tissue; host or cells: rat liver
T1 sequence (P22734 1-264): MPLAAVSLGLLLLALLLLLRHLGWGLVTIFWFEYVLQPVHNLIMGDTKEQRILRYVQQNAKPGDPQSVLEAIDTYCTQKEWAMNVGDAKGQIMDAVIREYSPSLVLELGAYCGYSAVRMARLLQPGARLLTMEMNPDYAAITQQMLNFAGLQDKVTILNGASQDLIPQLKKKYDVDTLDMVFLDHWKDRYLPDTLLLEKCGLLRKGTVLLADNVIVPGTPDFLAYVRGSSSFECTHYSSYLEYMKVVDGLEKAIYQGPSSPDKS

COMT in the brain = target: T2, COMT in the brain (Rattus norvegicus, UniProt P22734); assay: inhibition of COMT in the brain following oral administration to the rat; assay type: in vivo; conditions: over a period of 8 hours post administration
T2 construct: from tissue; host or cells: rat brain
T2 sequence (P22734 1-264): T1 sequence (P22734 1-264)

human recombinant S-COMT = target: T3, human recombinant S-COMT (Homo sapiens, UniProt P21964)
T3 sequence (P21964 1-221 isoform P21964-2): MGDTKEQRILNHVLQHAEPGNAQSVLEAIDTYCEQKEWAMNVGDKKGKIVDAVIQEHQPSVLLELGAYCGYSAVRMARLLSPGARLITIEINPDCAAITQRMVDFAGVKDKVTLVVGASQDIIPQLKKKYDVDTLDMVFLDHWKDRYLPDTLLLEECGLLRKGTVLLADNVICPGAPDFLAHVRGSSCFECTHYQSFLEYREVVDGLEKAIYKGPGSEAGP

enzyme activity recovery (rat liver COMT) (liver COMT; oral administration, after 9 hours): about 84% | ED50 (liver COMT; read-out: ED50 inhibiting liver COMT, rats, oral administration, at 3 hours post administration): 1.28 mg/kg | ED50 (liver COMT; read-out: ED50 inhibiting liver COMT, rats, oral administration, at 6 hours post administration): 2.08 mg/kg | enzyme activity inhibited (COMT in the brain) (COMT in the brain): about 50% | inhibition of human recombinant S-COMT (in words) (human recombinant S-COMT): inhibit
Structure (SMILES): Cc1ccc(C(=O)c2cc(O)c(O)c([N+](=O)[O-])c2)cc1 [tolcapone]
